The nature of the data set: Particle size measurement by dynamic light scattering. The class given is physicochemical. To be noted: steps (a) to (c) without palmitoyl-L-carnitine chloride. On the procedure:
[1] Particle Size Measurement
The particle size of particles contained in the nonaqueous composition for external use on the skin 1 week after preparation was measured by the dynamic light scattering method. Specifically, the measurement was performed on the number mode using a nanoparticle analysis system (Zetasizer Nano ZSP model manufactured by Malvern Instruments Ltd.).

sucrose erucic acid ester: the “Particle size of composition containing particles of the surfactant alone” value is listed as “about 2.5 nm”.

These data come from US11298298B2, “Method for producing nonaqueous composition for external use on skin” (CHANEL PARFUMS BEAUTE, priority 2017, dated 2022).
